The test system of data set [1] is Sphaerotheca fuliginea. In words: Sphaerotheca test (cucumber) / preventive. The data set is classed as in vivo. To be noted: 500 ppm of active ingredient, evaluated 7 days after inoculation. The method, then: Sphaerotheca Test (Cucumber)/Preventive
(§1) To produce a suitable preparation of active compound, 1 part by weight of active compound is mixed with the stated amounts of solvent and emulsifier, and the concentrate is diluted with water to the desired concentration.
To test for preventive activity, young plants are sprayed with the preparation of active compound at the stated rate of application. One day after this treatment, the plants are inoculated with an aqueous spore suspension of Sphaerotheca fuliginea. Then the plants are placed in a greenhouse at approximately 23° C. and a relative atmospheric humidity of approximately 70%.
(§2) The test is evaluated 7 days after the inoculation. 0% means an efficacy which corresponds to that of the untreated control, while an efficacy of 100% means that no disease is observed.

In data set [2] the test system is Septoria tritici. In words: Septoria tritici test (wheat) / preventive. It is filed as in vivo. As to conditions: 500 ppm of active ingredient, evaluated 21 days after inoculation. The method, then:
Septoria Tritici-Test (Wheat)/Preventive
(§3) To produce a suitable preparation of active compound, 1 part by weight of active compound or active compound combination is mixed with the stated amounts of solvent and emulsifier, and the concentrate is diluted with water to the desired concentration.
(§4) To test for preventive activity, young plants are sprayed with the preparation of active compound or active compound combination at the stated rate of application.
After the spray coating has been dried, the plants are sprayed with a spore suspension of Septoria tritici. The plants remain for 48 hours in an incubation cabinet at approximately 20° C. and a relative atmospheric humidity of approximately 100% and afterwards for 60 hours at approximately 15° C. in a translucent incubation cabinet at a relative atmospheric humidity of approximately 100%.
The plants are placed in the greenhouse at a temperature of approximately 15° C. and a relative atmospheric humidity of approximately 80%.
The test is evaluated 21 days after the inoculation. 0% means an efficacy which corresponds to that of the untreated control, while an efficacy of 100% means that no disease is observed.

Data set [3] relates to Pyrenophora teres. In words: Pyrenophora test (barley) / preventive. It is filed as in vivo. To be noted: 500 ppm of active ingredient, evaluated 7-9 days after inoculation. The method, then:
Pyrenophora Test (Barley)/Preventive
as §1
To test for preventive activity, young plants are sprayed with the preparation of active compound at the stated rate of application. One day after this treatment, the plants are inoculated with an aqueous spore suspension of Pyrenophora teres. The plants remain for 48 hours in an incubation cabinet at 22° C. and a relative atmospheric humidity of 100%. Then the plants are placed in a greenhouse at a temperature of approximately 20° C. and a relative atmospheric humidity of approximately 80%.
(§5) The test is evaluated 7-9 days after the inoculation. 0% means an efficacy which corresponds to that of the untreated control while an efficacy of 100% means that no disease is observed.

Data set [4] relates to Venturia inaequalis. In words: Venturia test (apples) / preventive. As to conditions: 100 ppm of active ingredient, evaluated 10 days after inoculation. It is filed as in vivo. Here is the method: Venturia Test (Apples)/Preventive
as §1
To test for preventive activity, young plants are sprayed with the preparation of active compound at the stated rate of application. After the spray coating has dried on, the plants are inoculated with an aqueous conidia suspension of the causal agent of apple scab (Venturia inaequalis) and then remain for 1 day in an incubation cabinet at approximately 20° C. and a relative atmospheric humidity of 100%.
The plants are then placed in a greenhouse at approximately 21° C. and a relative atmospheric humidity of approximately 90%.
The test is evaluated 10 days after the inoculation. 0% means an efficacy which corresponds to that of the untreated control, while an efficacy of 100% means that no disease is observed.

For data set [5], the system named is Puccinia recondita. In words: Puccinia test (wheat) / preventive. The data set is classed as in vivo. As to conditions: 500 ppm of active ingredient, evaluated 7-9 days after inoculation. Here is the method: Puccinia Test (Wheat)/Preventive
as §1
To test for preventive activity, young plants are sprayed with the preparation of active compound at the stated rate of application. One day after this treatment, the plants are inoculated with an aqueous spore suspension of Puccinia recondita. The plants remain for 48 hours in an incubation cabinet at 22° C. and a relative atmospheric humidity of 100%. Then the plants are placed in a greenhouse at a temperature of approximately 20° C. and a relative atmospheric humidity of approximately 80%.
as §5

Data set [6] can be described thus: log P by HPLC on reversed phase columns (EEC directive 79/831 Annex V.A8), method [b]. It is filed as physicochemical. Here is the method:
Calibration was done with not branched alkan2-ones (with 3 to 16 carbon atoms) with known log P-values (measurement of log P values using retention times with linear interpolation between successive alkanones). lambda-maX-values were determined using UV-spectra from 200 nm to 400 nm and the peak values of the chromatographic signals.

The subject of data set [7] is Blumeria graminis f.sp. hordei. In words: Blumeria test (barley) / preventive. To be noted: 500 ppm of active ingredient, evaluated 7 days after inoculation. The data set is classed as in vivo. The method, then: Blumeria Test (Barley)/Preventive
as §3, §4
After the spray coating has been dried, the plants are dusted with spores of Blumeria graminis f.sp. hordei.
The plants are placed in the greenhouse at a temperature of approximately 18° C. and a relative atmospheric humidity of approximately 80% to promote the development of mildew pustules.
as §2

Data set [8] relates to Alternaria solani. In words: Alternaria test (tomato) / preventive. It is filed as in vivo. As to conditions: 500 ppm of active ingredient, evaluated 7 days after inoculation. Here is the method:
Alternaria Test (Tomato)/Preventive
as §1
To test for preventive activity, young plants are sprayed with the preparation of active compound at the stated rate of application. One day after this treatment, the plants are inoculated with an aqueous spore suspension of Alternaria solani. The plants remain for one day in an incubation cabinet at approximately 22° C. and a relative atmospheric humidity of 100%. Then the plants are placed in an incubation cabinet at approximately 20° C. and a relative atmospheric humidity of 96%.
The test is evaluated 7 days after the inoculation. 0% means an efficacy which corresponds to that of the untreated control while an efficacy of 100% means that no disease is observed.

Each structure is given as a SMILES string.

By chromatographic logP is commonly meant a lipophilicity value derived from retention on a column. Higher therefore signals higher lipophilicity. Consider `CC(C)C1C2CCC1C1C(NC(=O)c3c(C(F)F)nn(C)c3F)CCCC21` (stereo not drawn) [Example 1, 3-(difluoromethyl)-5-fluoro-N-(9-isopropyldecahydro-1,4-methanonaphthalen-5-yl)-1-methyl-1H-pyrazole-4-carboxamide], for which the Eff. % was 100% in data set [1]; 90% in data set [2]; 100% in data set [3]; 100% in data set [4]; 95% in data set [5]; 100% in data set [7]. The Eff. % in data set [8] is 95%. Also, the “LogP[b]” value in data set [6] (HPLC, pH 2.7, 0.1% formic acid in water / acetonitrile gradient) is “LogP^[b] = 4.87”. Moreover, the chromatographic logP in data set [6] (reversed phase HPLC columns, pH 2.7, acid) was 4.87.

The values above are taken from US20130296383A1, “DECAHYDRO-1,4-METHANONAPHTHALEN CARBOXAMIDES” (BAYER INTELLECTUAL PROPERTY GMBH, priority 2010, published 2013).
